Patent US4342780A, “Method of depleting endogenous monoamines” (Merrell-Toraude et Cie, priority 1981, dated 1982)

Experiments:
[1] = test system: AADC; assay: Ex vivo AADC activity in organs of mice after repeated i.p. doses (Table II); set-up: species or system mice (Swiss Albino); conditions: three days, 12 h after 6th dose, vs control
Procedure: (§1) The test animals (e.g. mice or rats) are given the test compound in a suitable vehicle, either orally or by injection, each day over the period of time desired. The animals are kept on a constant time cycle, and body weights are measured daily. The animals are sacrificed by decapitation 12 to 24 hours after receiving the last dose of the test compound. Control animals receive the vehicle alone.
(§2) Immediately after death, the organs (brain, heart, and kidney) are removed and homogenized either in 50 ml phosphate buffer pH 6.8 for AADC determination or in ice-cold 0.4 M HClO4 containing 0.05% (w/v) EDTA and 0.1% (w/v) sodium bisulfite for catecholamine determination. AADC activity is determined by the ^14 CO2 trapping method of J. Christenson, supra (see Example 14) using DL-[1-^14 C]-dopa as the substrate. Catecholamines are determined by centrifuging the homogenate, adding the supernatant to alumina buffered to pH 8.0-8.4 to adsorb the catecholamines, re-extracting the catecholamines from the alumina with 0.2 M HClO4 and determining the catecholamines in the extracts using known procedures, such as by reversed-phase ion-pair HPLC with electrochemical detection.
(§3) Table II, shown below, sets forth the results obtained by testing particular compounds of Formula I in the above-described procedure in mice (Swiss Albino) after i.p. administration of the compound twice daily for three days: […]

[2] = test system: catecholamine content (norepinephrine, dopamine); assay: Catecholamine content in organs of rats after oral administration once daily for 15 days (Table III); type: in vivo, rats (Sprague-Dawley); conditions: 24 h after 15th dose, vs control; for % CHANGE Brain Dopamine: * not significant
Procedure: as §1, §2
Table III gives the results obtained by testing particular compounds of Formula I in rats (Sprague-Dawley) after oral administration of the test compound once daily for 15 days. AADC activity was not determined.

[3] = target: T1, AADC (Sus scrofa, UniProt P80041); assay: In vitro AADC inhibition: time of 90% inactivation (14CO2 trapping, DL-[1-14C]-dopa substrate); type: biochemical, hog; set-up: key to RATING: ++++: The relative activities of the compounds are rated by the given number of "plus" signs; +++: The relative activities of the compounds are rated by the given number of "plus" signs; 0-+: The relative activities of the compounds are rated by the given number of "plus" signs; conditions: for TIME OF 90% INACTIVATION: pH 7.4, 37° C.; for RATING: relative activity
T1 sequence (P80041 1-486): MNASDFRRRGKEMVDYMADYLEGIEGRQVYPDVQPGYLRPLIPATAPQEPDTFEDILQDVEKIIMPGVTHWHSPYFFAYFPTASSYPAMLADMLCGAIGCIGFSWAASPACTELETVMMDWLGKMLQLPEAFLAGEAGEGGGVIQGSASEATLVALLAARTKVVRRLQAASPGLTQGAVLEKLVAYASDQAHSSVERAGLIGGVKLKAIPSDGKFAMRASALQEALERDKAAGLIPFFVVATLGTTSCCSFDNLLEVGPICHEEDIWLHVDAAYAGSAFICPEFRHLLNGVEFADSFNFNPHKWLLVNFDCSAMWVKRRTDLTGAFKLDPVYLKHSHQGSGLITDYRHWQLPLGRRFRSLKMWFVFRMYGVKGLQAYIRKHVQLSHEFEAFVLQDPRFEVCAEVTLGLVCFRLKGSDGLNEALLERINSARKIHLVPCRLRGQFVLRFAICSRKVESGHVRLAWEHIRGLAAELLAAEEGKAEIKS
Procedure: AADC can be purified from hog kidney by the general method of J. Christenson et al. Archs. Biochem. Biophys., 141, 356 (1970) and G. Lancaster et al., Can. J. Biochem., 50, 791 (1972), and the specific activity of the enzyme is determined by the ^14 CO2 trapping method using DL-[1-^14 C]-dopa as the substrate (see Christenson et al.). One unit of activity is defined as the total amount of enzyme which produces 1 n mol of CO2 per minute, with DL-[1-^14 C]-dopa as substrate.
To 100 μl of 50 mM-phosphate buffer pH 7.4 containing 100 mM-mercapto-ethanol are added 5 μl of an aqueous solution containing the test compound at the desired concentration and 50 μl of an aqueous solution containing 2 units of AADC. The mixture is incubated at 37° C. and 20 μl aliquots are removed at various times. The AADC activity remaining in each aliquot is measured by the CO2 trapping method of Christenson.
The relative activities of the compounds are rated by the given number of "plus" signs.

[4] = test system: catecholamine content (norepinephrine, dopamine); assay: Catecholamine content in organs of mice after repeated i.p. doses (Table II); type: in vivo, mice (Swiss Albino); conditions: three days, 12 h after 6th dose, vs control
Procedure: as §1, §2, §3

[5] = Deaths in mice after repeated i.p. doses (Table II footnotes); type: in vivo, mice (Swiss Albino); conditions: 100 mg/kg i.p. twice daily, three days; number dead of animals
Procedure: as §1, §3

[6] = test system: endogenous catecholamine and 5-HT levels; assay: Effect on endogenous catecholamine and 5-HT levels in brain and heart (general statement); type: in vivo
[7] = test system: AADC; assay: AADC inhibition in organs of fasted rats after a single dose; type: in vivo; conditions: 16 h
Procedure: as §1, §2
(§4) In the brain, doses of 10 mg/kg and 200 mg/kg produced a 10% reduction and a 70-80% reduction of AADC activity, respectively. […] In the heart, no reduction of norepinephrine is noted up to a dose of 200 mg/kg. When tested after multiple administration of 10, 25, or 50 mg/kg given daily for six days in rats sacrificed 24 hours after the sixth dose, the compound produced a 50% decrease in brain norephinephrine at a dose of 10 mg/kg (daily). […] Serotonin (5-HT) levels, as assessed by standard techniques, are not altered in the brain even at the highest dose tested. Heart norepinephrine is reduced by only 20% at the highest dose.

[8] = test system: catecholamine levels (norepinephrine, dopamine) and serotonin (5-HT); assay: Catecholamine and serotonin levels in organs of rats after daily doses for six days; type: in vivo
Procedure: as §1, §2, §4

[9] = test system: catecholamine levels (norepinephrine, dopamine); assay: Catecholamine levels in organs of fasted rats after a single dose; type: in vivo; conditions: 16 h
Procedure: as §1, §2, §4

[10] = test system: catecholamine levels (dopamine, noradrenaline); assay: Effect of dopamine injection on catecholamine levels in heart and brain of mice treated with test compound (Table VI); type: in vivo, Male albino mice
Procedure: Saline solution is used as a control. The mice are sacrificed and the catecholamines, dopamine and noradrenaline, and serotonin (5-hydroxytryptamine) are determined by reverse-phase ion-pair high pressure liquid chromatography using electrochemical detection. […] Twelve hours after the second dose, one group of animals received an i.p. injection of 50 mg/kg of dopamine-HCl (Sigma, Chem. Co), the other group received saline instead. Three hours after the dopamine injection, the animals were killed and catecholamines were measured in heart and brain as described in Example 18.

[11] = 10 mg/kg oral once daily 15 days
[12] = 20 mg/kg oral once daily 15 days
[13] = 30 mg/kg oral once daily 15 days
[14] = 10 mg/kg i.p. twice daily, * not significant
[15] = 10 mg/kg i.p. twice daily, * not significant (-25*, -7*)
[16] = 10 mg/kg i.p. twice daily, * not significant (-25*, -9*)
[17] = 100 mg/kg i.p. twice daily, * not significant (-35*)

Compound | % CHANGE AADC Brain ([1]; 10 mg/kg i.p. twice daily) [%] | % CHANGE AADC Kidney ([1]; 10 mg/kg i.p. twice daily) [%] | % CHANGE AADC Brain ([1]; 100 mg/kg i.p. twice daily) [%] | % CHANGE AADC Kidney ([1]; 100 mg/kg i.p. twice daily) [%] | % CHANGE Brain Norepinephrine [2, 11] [%] | % CHANGE Heart Norepinephrine [2, 11] [%] | % CHANGE Brain Dopamine [2, 11] [%] | % CHANGE Brain Norepinephrine [2, 12] [%] | % CHANGE Heart Norepinephrine [2, 12] [%] | % CHANGE Brain Dopamine [2, 12] | % CHANGE Brain Norepinephrine [2, 13] [%] | % CHANGE Heart Norepinephrine [2, 13] [%] | % CHANGE Brain Dopamine [2, 13] [%] | TIME OF 90% INACTIVATION ([3]; CONC. 10 μM) [min] | % CHANGE NOREPINEPHRINE Brain [4, 14] [%] | % CHANGE NOREPINEPHRINE Heart [4, 15] [%] | % CHANGE DOPAMINE Brain [4, 16] [%] | % CHANGE NOREPINEPHRINE Brain ([4]; 100 mg/kg i.p. twice daily) [%] | % CHANGE NOREPINEPHRINE Heart ([4]; 100 mg/kg i.p. twice daily) [%] | % CHANGE DOPAMINE Brain [4, 17] [%] | further results
NC(CF)(Cc1cccc(O)c1O)C(=O)O (stereo not drawn) [2,3-diOH-phenyl, 2-Amino-2-fluoromethyl-3-(2,3-dihydroxyphenyl)propionic acid] | -73 | -90 | -99 | -90 | -11 | -38 | 0 | -17 | -48 | +3% | -27 | -79 | -10 | 1 to 2 | -33 | -33 | -25 | -90 | -90 | -93 | RATING ([3]; CONC. 10 μM): ++++
NC(CF)(Cc1cc(O)ccc1O)C(=O)O (stereo not drawn) [2,5-diOH-phenyl, 2-Amino-2-fluoromethyl-3-(2,5-dihydroxyphenyl)propionic acid] | -58 | -78 | -99 | -87 | -16 | -31 | -1 | -32 | -38 | -2% | -37 | -53 | -5 | 3 | 0 | -25 | 0 | -90 | -76 | 90 | RATING ([3]; CONC. 10 μM): ++++
Cc1cccc(CC(N)(CF)C(=O)O)c1O (stereo not drawn) [2-OH3-methyl phenyl, 2-Amino-2-fluoromethyl-3-(2-hydroxy-3-methylphenyl)propionic acid] | -52 | -84 | -94 | -98 |  |  |  |  |  |  |  |  |  |  | -27 | -41 | -20 | -47 | -68 | -24 | dead [5]: 1/5; TIME OF 90% INACTIVATION ([3]; CONC. 100 μM): 1 min; RATING ([3]; CONC. 100 μM): +++
NC(CF)(Cc1cccc(O)c1)C(=O)O (stereo not drawn) [Example 3-OH-phenyl, 2-Amino-2-fluoromethyl-3-(3-hydroxyphenyl)propionic acid] | -80 | -78 | -95 | -96 |  |  |  |  |  |  |  |  |  |  | -34 | 0 | 0 | -77 | -49 | -75 | TIME OF 90% INACTIVATION ([3]; CONC. 100 μM): 4 min; RATING ([3]; CONC. 100 μM): +++
COC(=O)C(N)(CF)Cc1ccc(O)cc1 (stereo not drawn) [Methyl 2-amino-2-fluoromethyl-3-(4-hydroxyphenyl)propionate] |  |  |  |  |  |  |  |  |  |  |  |  |  |  |  |  |  |  |  |  | endogenous 5-HT levels in the brain [6]: not altered; endogenous catecholamine levels in brain and heart [6]: lower engenous catecholamine levels in the brain but not in the heart; reduction of AADC activity in the brain ([7]; 10 mg/kg single dose): 10%; AADC activity in kidney, liver, and adrenals ([7]; 50 mg/kg single dose): marked decrease; AADC inhibition in kidney, liver, and adrenals ([7]; 100 mg/kg single dose): Complete inhibition; reduction of AADC activity in the brain ([7]; 200 mg/kg single dose): 70-80%; AADC activity in the heart ([7]; up to 200 mg/kg single dose): not reduced significantly; decrease in brain norepinephrine ([8]; 10 mg/kg daily for six days, 24 h after sixth dose): 50%; Brain dopamine decrease ([8]; 50 mg/kg daily for six days, 24 h after sixth dose): 50%; decrease in brain norepinephrine, response at higher doses ([8]; 25 or 50 mg/kg daily for six days (above 10 mg/kg), 24 h after sixth dose): do not give an additional response; Brain dopamine, effect at lower doses ([8]; below 50 mg/kg (10, 25) daily for six days, 24 h after sixth dose): no significant effect; Serotonin (5-HT) levels in the brain ([8]; even at the highest dose tested, daily for six days): not altered; Heart norepinephrine reduction ([8]; highest dose (50 mg/kg) daily for six days, 24 h after sixth dose): 20%; Brain norepinephrine decrease ([9]; 10 mg/kg single dose): 15-20%; dopamine decrease (brain) ([9]; 50 mg/kg single dose): decreased significantly; Brain norepinephrine decrease ([9]; 200 mg/kg single dose): 50%; dopamine decrease (brain) ([9]; 200 mg/kg single dose): 75%; reduction of norepinephrine in the heart ([9]; up to 200 mg/kg single dose): no reduction
NCCc1ccc(O)c(O)c1 [dopamine, reference compound] |  |  |  |  |  |  |  |  |  |  |  |  |  |  |  |  |  |  |  |  | depletion of noradrenaline in the heart achieved by the test-compound ([10]; effect of dopamine injection 50 mg/kg i.p.): reversed totally; depletion of amines in the central nervous system ([10]; effect of exogenous dopamine 50 mg/kg i.p.): not affected
